Reference: US4031218A, “7-(2,3-Dihydroxypropyl-1,3-di-n-propylxanthine and a pharmaceutical composition containing same useful as a bronchial muscle relaxant” (Mallinckrodt, Inc., priority 1976, dated 1977)
Converted amounts (≈) assume the structure as drawn.

Key:
dog hind limb = experiment: Dog hind limb perfusion preparation (vasodilator); format: in vivo; conditions: intra-arterial; relative to theophylline, molar basis
Source text: 1. Dog Hind Limb Perfusion Preparation
A total of 12 adult mongrel dogs of either sex were used to assess the direct intra-arterial dilating capacity of the five experimental compounds. […] This was accomplished with a Harvard Variable Speed Peristaltic Pump after proximal and distal cannualtion of the femoral artery. Changes in arterial vascular resistance were reflected as changes in perfusion pressure as measured from a T-tube on the distal side of the pump. Mean systemic arterial pressure was also recorded from the contralateral femoral artery. Drug solutions, dissolved in saline, were injected into the arterial blood supply immediately prior to entering the cannulated distal artery. Logarithmically increasing doses were given at 10-minute intervals and responses were recorded.

[1] = Intravenous emetic study in dogs (ED50); format: in vivo, dog; conditions: dog, in vivo, iv; read-out: ED50 (median emetic dose), I.V. Dogs
Procedure: (§1) Twelve adult mongrel dogs of either sex were employed to determine the median emetic dose (ED50) of all five experimental compounds after intravenous administration. […] Onset, frequency, and duration of emetic episodes were also recorded. The dogs were not fasted, were allowed at least 2 days rest between doses, and no animal received the same compound twice in succession. […] ED50 values were calculated according to the method of Litchfield and Wilcoxon (1949).

dogs [2] = experiment: Intravenous emetic study in dogs (ED50); format: in vivo, dog
Procedure: as §1

dogs [3] = experiment: Oral minimum emetic dose in dogs; format: in vivo, dog
Procedure: 2. Oral Minimum Emetic Dose
The minimum dose of each compound which causes emesis after oral administration was estimated in a group of five adult mongrel dogs of either sex. Logarithmically increasing or decreasing (depending upon response) doses of each compound were administered orally via a flexible stomach tube. The compounds were dissolved in distilled water in concentrations to allow a constant volume dose of 5 ml/kg. […] Onset, frequency, and duration of emetic episodes as well as signs of CNS stimulation were also recorded.

mice = experiment: Voluntary motor activity in mice (CNS stimulation); format: in vivo, male albino Swiss mice
Procedure: F. Voluntary Motor Activity Studies in Mice In an attempt to quantitatively assess central nervous system activity, each compound was evaluated for its influence on voluntary motor activity in mice according to the method described by Dews (British J. Pharmacol. 8:46, 1953). Three cylindrical actophotometer cages were utilized simultaneously, each with six light beams and six photoelectric cells. Individual digital counters were connected to each activity cage. Male albino Swiss mice with weights ranging between 19 and 24 gm were used throughout. Compounds were dissolved in distilled water and were injected intraperitoneally in logarithmically spaced doses to groups of five mice, three groups per dose level. Control groups received saline.

rats = experiment: Acute oral diuretic evaluation in rats; format: in vivo, Sprague Dawley rats; conditions: relative to theophylline, molar basis
Procedure: 1. Acute Oral Evaluation in Rats
The oral diuretic effect of each compound was estimated in rats by a modification of the method described by Lipschitz et al. (J. Pharmacol. Exp. Ther. 79:97, 1943). Male Sprague Dawley rats (Carworth) weighing between 153 and 220 gms were fasted overnight. Groups of five animals each were administered three appropriate logarithmically spaced doses of each compound dissolved in saline in a constant volume dose of 25 ml/kg via an oral feeding needle. Controls received the same dose of only saline. The rats were then placed in individual metabolism cages and deprived of food and water for the remainder of the experiment. At the end of six hours, each rat was forced to expel urine in the bladder by pulling on the base of the tail. Parameters measured included urine volume, pH, and sodium and potassium excretion as measured by atomic absorption analysis. Six hour values were averaged for each dose of compound and for controls and were compared accordingly.

[4] = Summary of relative molar activities (means and therapeutic efficacy)
Source text: ^g - Mean bronchodilator (therapeutic) activity divided by mean acute

human bronchodilator = experiment: Estimated human bronchodilator dose equivalent to recommended theophylline dose; conditions: based on recommended theophylline dose and relative bronchodilator activities
Source text: Experimental results are summarized in Table I wherein pharmacologic and toxicologic activities relative to that of theophylline are expressed on a molar basis.
^a - Dose: Based on the recommended dose for theophylline and the
relative activities in the bronchodilator experiments.

Bronchodilator activity = conditions: compared with theophylline
[5] = prior art statement; cited from earlier work
dogs [6] = experiment: Intravenous cardiovascular evaluation in dogs
Procedure: Intravenous Cardiovascular Evaluation in Dogs
Thirteen adult mongrel dogs of either sex ranging in weight from 16.7 to 25.0 kg were employed to compare the overall intravenous cardiovascular activity of the five experimental compounds.
Dogs were anesthetized with pentobarbital sodium, 30-35 mg/kg i.v., fitted with a cuffed endotracheal tube, and ventilated with a Harvard Animal Respiratory Pump. A femoral vein was cannulated for i.v. drug administration. The left common carotid artery was cannulated and the cannula tip advanced into the aortic arch. A median sternotomy was performed and appropriately sized electromagnetic blood flow transducers (Biotronex) were placed around the ascending aorta and left anterior descending coronary artery. These procedures allowed continuous recording or calculation of the following parameters:
a. Mean Arterial Pressure (MAP); from the aortic cannula.
b. Heart Rate (HR); electronically from pulsatile ascending aortic flow.
c. Cardiac Output (CO); mean ascending aortic flow.
d. Myocardial Contractile Force (MCF); dQ/dt, the first derivative of maximum aortic flow rate, also known as peak aortic flow acceleration.
e. Stroke Volume (SV); quotient of CO/HR.
f. Cardiac Work (CW); product of CO X MAP.
g. Total Peripheral Resistance (TPR); quotient of MAP/CO.
h. Coronary Flow (CF); mean left anterior descending (LAD) coronary flow.
i. Coronary Resistance (CR); quotient of MAP/CF.
Logarithmically increasing doses of the appropriate compound were injected at 20-minute intervals. Responses were measured at 1, 2, 5, 10, 15 and 20 minutes after each dose and the average response during that period was calculated. Theophylline (aminophylline), dyphylline (II), and Compound V were employed in both 20 and 80 mg/ml concentrations in distilled water. Compounds III and IV were used in 10 and 30 mg/ml concentrations respectively.

dogs [7] = experiment: Acute intravenous diuretic evaluation in dogs
Procedure: Acute Intravenous Evaluation in Dogs
Compounds were tested in two dogs each. Animals were initially hydrated with 30 ml/kg of water, orally; then anesthetized with pentobarbital sodium, 30-35 mg/kg i.v. One femoral vein was cannulated and a constant intravenous infusion of warm saline (3 ml/min.) was begun and continued throughout the experiment. The contralateral femoral vein was also cannulated for intravenous drug administration. Urine was directly collected from bilateral ureter cannulae. After a 20-minute control collection period, the first dose of the appropriate compound was injected and urine was collected at 20-minute intervals for a period of one hour. This procedure was repeated for two additional doses of the same compound. Urine volume, pH, and sodium and potassium levels were determined for each 20-minute collection period and sums were obtained for the one-hour period after each dose. Test results, reported as successive changes in each parameter, were compared accordingly.

[8] = Acute toxicity and side effects; conditions: compared with theophylline
[9] = relative to theophylline, molar basis

For `CCCn1c(=O)c2c(ncn2CC(C)O)n(CCC)c1=O` (centres unmarked) [III, 7-(2-hydroxypropyl) 1,3-di-n-propylxanthine], the “Vasodilator, HLPP (Dogs), relative molar activity” value (dog hind limb) was 0.76, the ED50 [1] was 0.7 mg/kg and the “Emetic effect, I.V. Dogs” value (dogs [2]; estimated at HBD) was “Severe”. For the same compound, the “I.V. Emetic (Dogs), relative molar activity” value (dogs [2]; [9]) was 134.17, the “MED (minimum emetic dose), P.O. Dogs” value (dogs [3]) was 0.8 mg/kg and the “Emetic effect, P.O. Dogs” value (dogs [3]; estimated at HBD) was “Severe”. For the same compound, the “Oral Emetic (Dogs), relative molar activity” value (dogs [3]; [9]) was 251.00, the “CNS Activity, I.P. Mice” value (mice; estimated at HBD) was “Severe” and the “I.P. CNS Stimulation (Mice), relative molar activity” value (mice; [9]) was 1.73. For the same compound, the “CNS Activity, I.P. Mice, change” value (mice; voluntary motor activity, estimated at HBD) was -60 %Δ, the “Oral Diuretic (Rats), relative molar activity” value (rats) was 7.29 and the “Therapeutic Efficacy” value ([4]; mean bronchodilator (therapeutic) activity divided by mean acute toxic and side effect activity) was 0.09. The “Mean acute toxicity and side effect activity (relative molar)” value ([4]; mean of acute toxicity and side effect lines of Table I, relative to theophylline) was 36.55, the “Mean bronchodilator activity (relative molar)” value ([4]; mean of bronchodilator lines of Table I, relative to theophylline) was 3.46 and the “Estimated Human Bronchodilator Dose (HBD), per 70 kg” value (human bronchodilator) was 99 mg/70 kg. The “Estimated Human Bronchodilator Dose (HBD), per kg” value (human bronchodilator) was 1.4 mg/kg, the “Bronchodilator potency in words” value (Bronchodilator activity) was “more potent bronchodilators than theophylline” and the “Side effects / tolerance in words (prior art)” value [5] was “well tolerated”. The solubility (Solubility; water) was 10000 µg/mL (≈ 34 mM), the Solubility in words (Solubility; water solubility, qualitative) was “low solubilities” and the “CF (coronary flow) change” value (dogs [6]; i.v. dogs, estimated at HBD) was “+8 %Δ”. For the same compound, the “CO (cardiac output) change” value (dogs [6]; i.v. dogs, estimated at HBD) was “+10 %Δ”, the “CW (cardiac work) change” value (dogs [6]; i.v. dogs, estimated at HBD) was “+2 %Δ” and the “HR (heart rate) change” value (dogs [6]; i.v. dogs, estimated at HBD) was “+21 ΔBPM”. For the same compound, the “MAP (mean arterial pressure) change” value (dogs [6]; i.v. dogs, estimated at HBD) was -8 ΔmmHg, the “MCF (myocardial contractile force) change” value (dogs [6]; i.v. dogs, estimated at HBD) was “+28 %Δ” and the “TPR (total peripheral resistance) change” value (dogs [6]; i.v. dogs, estimated at HBD) was -15 %Δ. The “I.V. Cardiovascular (Dogs), mean relative molar activity” value (dogs [6]; mean for arterial pressure, heart rate, contractile force, cardiac output, stroke volume, cardiac work, TPR, coronary flow and resistance, relative to theophylline) was 1.16, the “Cardiovascular effects (Mean)” value (dogs [6]; mean of the cardiovascular changes, i.v. dogs, estimated at HBD) was 13 and the “Diuretic Activity, I.V. Dogs” value (dogs [7]; estimated at HBD) was “Mild”. For the same compound, the “I.V. Diuretic (Dogs), relative molar activity” value (dogs [7]; [9]) was 0.50 and the “Acute toxicity, emetic, cardiovascular, CNS and diuretic effects in words” value [8] was “increased undesirable emetic, cardiovascular and central nervous system (CNS) effects”.
